Assay results: US20240368115A1, “REGULATOR CONTAINING TRICYCLIC DERIVATIVE, PREPARATION METHOD THEREFOR AND APPLICATION THEREOF” (SHUJING BIOPHARMA CO., LTD, priority 2021, published 2024)
Where two headings read alike, the source gives them in different places.

Legend:
5-HT1A receptor = biological target: T1, 5-HT1A receptor (Homo sapiens, UniProt P08908); test: 5-HT1A receptor cAMP agonist test; type: cell-based; details: HEK293 cell strain stably expressing 5-HT1A receptor; for EC50: cAMP, forskolin 2.5×10^−7 M; for 5-HT1A Max Act %: positive control serotonin 10^−6 M
T1 construct: expressed in transfected cells
T1 sequence (P08908 1-422): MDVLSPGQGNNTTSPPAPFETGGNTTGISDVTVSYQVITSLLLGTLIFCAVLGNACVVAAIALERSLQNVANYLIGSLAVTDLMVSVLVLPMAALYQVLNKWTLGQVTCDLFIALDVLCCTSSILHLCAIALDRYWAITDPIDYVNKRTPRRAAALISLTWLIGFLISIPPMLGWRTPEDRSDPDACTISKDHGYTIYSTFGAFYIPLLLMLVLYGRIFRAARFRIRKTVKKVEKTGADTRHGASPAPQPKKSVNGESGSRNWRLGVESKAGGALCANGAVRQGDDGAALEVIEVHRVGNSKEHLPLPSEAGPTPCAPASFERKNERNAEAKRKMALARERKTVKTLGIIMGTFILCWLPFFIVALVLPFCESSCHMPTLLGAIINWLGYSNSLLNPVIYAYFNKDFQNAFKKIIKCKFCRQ
Source text: (§1) • cAMP detection kit was purchased from Cisbio; an HEK293 cell strain stably expressing 5-HT1A receptor was constructed by Shanghai Shujing Biopharma Co., Ltd.; serotonin, forskolin, and IBMX were purchased from Sigma; ProxiPlate-384 well plates were purchased from PerkinElmer; HBSS was purchased from Thermo Fisher Scientific.
(§2) • (1) The cultured cells were digested with trypsin, and the cell suspension was washed with HBSS buffer after the digestion was terminated. The medium was removed by centrifugation at 200×g. The pellet was resuspended in an appropriate amount of experimental buffer, and 20 μL of cell suspension was counted using a cell counter and diluted to 0.4×10^6 cells/mL. • (2) 5 μL of cell suspension was added to a ProxiPlate-384 well plate (2×10^3 cells/well). • (3) Test compounds were serially diluted in an experimental buffer, and 5 μL of the mixed solution was transferred to the reaction plate with Bravo.

5-HT2A receptor = 5-HT2A receptor (Homo sapiens, UniProt P28223); test: Calcium flux test for 5-HT2A receptor; type: cell-based; details: CHO cell strain stably expressing 5-HT2A receptor; for IC50: calcium flux, antagonism of serotonin; for 5-HT2A Max Inh %: positive control ketanserin 10^−7 M
Sequence of 5-HT2A receptor (P28223 whole entry): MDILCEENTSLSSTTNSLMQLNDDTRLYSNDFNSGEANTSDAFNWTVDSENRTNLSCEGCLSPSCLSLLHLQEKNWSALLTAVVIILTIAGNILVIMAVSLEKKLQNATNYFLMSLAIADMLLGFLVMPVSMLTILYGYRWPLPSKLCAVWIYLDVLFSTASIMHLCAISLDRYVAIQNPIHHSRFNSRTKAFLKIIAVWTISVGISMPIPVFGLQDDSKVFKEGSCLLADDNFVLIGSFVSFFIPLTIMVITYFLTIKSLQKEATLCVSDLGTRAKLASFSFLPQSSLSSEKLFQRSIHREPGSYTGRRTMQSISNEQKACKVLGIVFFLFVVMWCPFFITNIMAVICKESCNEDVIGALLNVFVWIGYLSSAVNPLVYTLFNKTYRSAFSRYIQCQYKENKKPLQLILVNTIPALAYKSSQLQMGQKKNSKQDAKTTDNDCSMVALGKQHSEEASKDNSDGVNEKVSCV
Protocol: • Fluo-4 calcium flux detection kit was purchased from Invitrogen; a CHO cell strain stably expressing 5-HT2A receptor was purchased from PerkinElmer; serotonin was purchased from Sigma; ketanserin was purchased from Targetmol; polylysine-coated 384-well plates and 384-well compound plates were purchased from Greiner Bio-One. Molecular Device FLIPR, Agilent Bravo liquid workstation, and Countstar BioTech cell counter.
• (1) The cryopreserved cells were rapidly thawed in a water bath at 37° C., and the cells were resuspended in a plating medium. The cryopreservation solution was removed by centrifugation at 200×g. The pellet was resuspended in an appropriate amount of plating medium, 20 μL of cell suspension was counted using a cell counter, and the cell density was diluted to 1×10^6 cells/mL. • (2) 20 μL of cell suspension was added to a polylysine-coated 384-well plate (2×10^4 cells/well). • (3) The cell plate was incubated in a 37° C./5% CO2 incubator for 16-20 h.
• (1) The cell plate was taken out from the incubator and centrifuged at 100×g to remove the medium. 20 μL of experimental buffer was added, and then 20 μL of 2× fluorescent probe solution was added. […] The cell plate and agonist positive compound plate were placed into the FLIPR instrument, the detection program was run, 10 μL of the diluted compound was transferred from the agonist compound plate to the cell plate, and the fluorescence signal was read. […] The cell plate and test compound plate were placed in the FLIPR instrument, the detection program was run, and 10 μL of the diluted compound was transferred from the test compound plate to the cell plate. […] The test compound plate was then taken out, and the agonist positive compound plate with 6×EC50 concentration was placed.
Inhibition rate (Inhibition %)=(negative control reading value−compound reading value)/(negative control reading value−positive control reading value)×100%

[1] = Pharmacokinetic test in mice; type: in vivo; details: plasma, oral intragastric
Protocol: Male ICR mice were administered orally intragastrically, the plasma concentrations of the compounds of the present invention were measured in the mice, the PK parameters were calculated, and the pharmacokinetic evaluation was performed on the compounds of the present invention.
• (1) Test samples: the compounds of the examples of the present invention, self-made. • (2) Test animals: ICR mice, SPF grade, male, Xuzhou Medical University. • (3) Main test instruments:
Drug preparation: according to the weight of the weighed drug, the preparation volume was calculated. 5% of DMSO was added firstly. After the drug was fully dissolved, 95% of 20% aqueous PB-cyclodextrin solution was then added, and the mixture was mixed well for later use.
Administration route: oral intragastric administration. Frequency and duration of administration: single administration.
ICR mice were stratified according to body weight and then randomly divided into groups of 9 mice each, and the mice were fasted overnight prior to the test. The mice were separately administered orally intragastrically. 50 μL of blood was collected from the fundus vein of the mouse at 0 h, 0.083 h, 0.25 h, 0.5 h, 1 h, 2 h, 4 h, 8 h, 12 h, and 24 h (3 time points for each mouse) to a sample tube containing heparin sodium as an anticoagulant, and the tube was placed in wet ice and centrifuged at 4000 r·min^−1 for 10 min. The plasma was separated, and cryopreserved in a refrigerator at −80° C. for testing.
The concentrations of plasma samples were measured by high performance liquid chromatography-tandem mass spectrometry (LC-MS/MS). The retention times of the compounds and internal standard, chromatogram acquisitions, and integrals of chromatograms were processed using the software Analyst (AB SCIEX), and the data statistics were processed using the software Watson LIMS (Thermo Fisher Scientific) or Analyst (AB SCIEX). The concentration of plasma was processed using a non-compartmental model of the pharmacokinetic software WinNonlin™ Version 6.3 (Pharsight, Mountain View, CA), and pharmacokinetic parameters were calculated by a linear log-trapezoidal method.

D2S receptor = biological target: T2, D2S receptor (Homo sapiens, UniProt P14416); test: D2S receptor cAMP agonist test; type: cell-based; details: HEK293 cell strain stably expressing D2S receptor; for EC50: cAMP, forskolin 5×10^−7 M; for D2S Max Act %: positive control dopamine 1×10^−7 M
T2 construct: expressed in transfected cells
T2 sequence (P14416 1-414 isoform P14416-2): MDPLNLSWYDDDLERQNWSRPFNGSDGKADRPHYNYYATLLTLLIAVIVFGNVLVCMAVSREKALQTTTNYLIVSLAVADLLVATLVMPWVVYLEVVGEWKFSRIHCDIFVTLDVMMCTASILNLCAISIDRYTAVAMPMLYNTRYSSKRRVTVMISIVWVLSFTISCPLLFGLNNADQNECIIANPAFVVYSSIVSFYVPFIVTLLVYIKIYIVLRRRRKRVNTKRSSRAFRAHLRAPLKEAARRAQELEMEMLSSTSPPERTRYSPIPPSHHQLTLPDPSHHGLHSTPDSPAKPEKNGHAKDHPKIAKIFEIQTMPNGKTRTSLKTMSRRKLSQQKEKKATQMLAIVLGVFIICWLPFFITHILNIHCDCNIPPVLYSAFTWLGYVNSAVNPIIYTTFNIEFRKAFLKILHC
Source text: as §1, with “cAMP” for “• cAMP”, “D2S” for “5-HT1A”, “dopamine,” for “serotonin,”
as §2, with “0.6×10^6” for “0.4×10^6”, “(3×10^3” for “(2×10^3”

D2L receptor = biological target: T3, D2L receptor (Homo sapiens, UniProt P14416); test: D2L receptor cAMP agonist test; type: cell-based; details: HEK293 cell strain stably expressing D2L receptor; for EC50: cAMP, forskolin 0.5 μM; for D2L Max Act %: positive control dopamine 1 μM
T3 construct: expressed in transfected cells
T3 sequence (P14416 whole entry): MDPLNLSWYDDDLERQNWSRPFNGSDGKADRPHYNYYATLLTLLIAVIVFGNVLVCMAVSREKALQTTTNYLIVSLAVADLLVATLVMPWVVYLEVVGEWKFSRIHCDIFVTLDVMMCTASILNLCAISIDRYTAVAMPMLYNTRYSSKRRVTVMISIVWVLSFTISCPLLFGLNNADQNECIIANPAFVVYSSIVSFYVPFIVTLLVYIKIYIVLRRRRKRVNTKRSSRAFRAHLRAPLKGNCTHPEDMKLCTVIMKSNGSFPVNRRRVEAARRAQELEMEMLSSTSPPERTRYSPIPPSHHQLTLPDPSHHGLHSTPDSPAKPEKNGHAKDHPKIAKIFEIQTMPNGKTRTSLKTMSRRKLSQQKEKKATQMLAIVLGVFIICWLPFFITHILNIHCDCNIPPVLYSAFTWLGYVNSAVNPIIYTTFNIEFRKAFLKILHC
Protocol: as §1, with “D2L” for “5-HT1A”, “dopamine,” for “serotonin,”
• (1) The cryopreserved cells were thawed in a water bath at 37° C., the cell suspension was resuspended in HBSS buffer, and the mixed solution was centrifuged at 750 rpm for 5 min to remove the medium. The pellet was resuspended in an appropriate amount of experimental buffer, and an appropriate amount of cell suspension was diluted to 0.4×10^6 cells/mL. • (2) 5 μL of cell suspension was added to a ProxiPlate-384 well plate (2×10^3 cells/well), and the plate was centrifuged at 1000 rpm for 1 min. • (3) Test compounds were serially diluted in an experimental buffer, and 5 μL of the mixed solution was transferred to the reaction plate with Bravo.

[2] = male, ICR, mouse, po, 5 mg/kg, single dose 5 mg/kg
[3] = male, ICR, mouse, po, 5 mg/kg, single dose 5 mg/kg, read-out: AUC(0-inf)
[4] = male, ICR, mouse, po, 5 mg/kg, single dose 5 mg/kg, read-out: Cmax
[5] = male ICR mice, single dose 5 mg/kg, 5 mg/kg

Row | Compound | EC50 (5-HT1A receptor) [nM] | 5-HT1A Max Act % (5-HT1A receptor) [%] | IC50 (5-HT2A receptor) [nM] | 5-HT2A Max Inh % (5-HT2A receptor) [%] | half-life [1, 2] [h] | AUC(0-inf) [1, 3] [ng·h/mL] | Cmax [1, 4] [ng/mL] | EC50 (D2S receptor) [nM] | D2S Max Act % (D2S receptor) [%] | EC50 (D2L receptor) [nM] | D2L Max Act % (D2L receptor) [%] | AUC(0-inf) [1, 5] [ng·h/mL] | Cmax [1, 5] [ng/mL] | t1/2 [1, 5] [h] | half-life ([1]; male, ICR, mouse, po, 3 mg/kg, single dose 3 mg/kg) [h] | AUC(0-inf) ([1]; male, ICR, mouse, po, 3 mg/kg, single dose 3 mg/kg, read-out: AUC(0-inf)) [ng·h/mL] | Cmax ([1]; male, ICR, mouse, po, 3 mg/kg, single dose 3 mg/kg, read-out: Cmax) [ng/mL]
1 | O=C1COc2ccc(OCCCCN3CCN(c4cccc(Cl)c4Cl)CC3)cc2N1 [RP5063, reference compound] | 1880 | 31.6 | 9130 | 67.6 | 3.8 | 1560 | 195 | – | – | – | – | – | – | – | – | – | –
2 | O=C1Nc2cc(OCCCCN3CCN(c4cccc5c4CCO5)CC3)ccc2C2CC12 (single isomer, unassigned) [Example 45-P2] | 200 | 52.8 | 411 | 100.0 | – | – | – | 0.89 | 111.5 | 0.62 | 41.5 | 4083.7 | 660.0 | 3.0 | – | – | –
3 | O=C1Nc2cc(OCCCCN3CCN(c4cccc5sccc45)CC3)ccc2C2CC12 (single isomer, unassigned) [Example 42-P2] | 693 | 45.5 | 497 | 97.3 | – | – | – | 0.93 | 99.2 | 0.43 | 32.6 | 11157.8 | 1296.7 | 5.8 | – | – | –
4 | O=C1Nc2cc(OCCCCN3CCN(c4cccc5c4CCO5)CC3)ccc2C2CC12 (single isomer, unassigned) [Example 45-P1] | 243 | 56.4 | 398 | 99.8 | 3.2 | 4770 | 774 | 1.01 | 106.1 | 2.12 | 28.0 | – | – | – | – | – | –
5 | O=C1Nc2cc(OCCCCN3CCN(c4cccc5c4CC(F)(F)C5)CC3)ccc2C2CC12 (stereo not drawn) [Example 46, 5-(4-(4-(2,2-Difluoro-2,3-dihydro-1H-inden-4-yl)piperazin-1-yl)butoxy)-1,1a,3,7b-tetrahydro-2H-cyclopropa[c]quinolin-2-one] | 354 | 62.6 | 2340 | 91.6 | 15.2 | 17700 | 1200 | 0.93 | 114.3 | 0.4 | 43.4 | – | – | – | – | – | –
6 | O=C1Nc2cc(OCCCCN3CCN(c4cccc5sccc45)CC3)ccc2C2CC12 (stereo not drawn) [Example 42, 5-(4-(4-(Benzo[b]thiophen-4-yl)piperazin-1-yl)butoxy)-1,1a,3,7b-tetrahydro-2H-cyclopropa[c]quinolin-2-one] | 313 | 55.7 | 1690 | 100.6 | 13 | 11300 | 687 | 0.95 | 106.0 | 0.47 | 32.7 | – | – | – | – | – | –
7 | O=C1CCc2ccc(OCCCCN3CCN(c4cccc(Cl)c4Cl)CC3)cc2N1 [Aripiprazole, reference compound] | – | 43.8 | – | 86.0 | 3.5 | 1040 | 180 | – | – | – | – | – | – | – | – | – | –
8 | O=C1Nc2cc(OCCCCN3CCN(c4cccc5sc(Cl)cc45)CC3)ccc2C2CC12 (stereo not drawn) [Example 49, 5-(4-(4-(2-Chlorobenzo[b]thiophen-4-yl)piperazin-1-yl)butoxy)-1,1a,3,7b-tetrahydro-2H-cyclopropa[c]quinolin-2-one] | 128 | 80.7 | 7400 | 90.4 | – | – | – | 0.99 | 112.6 | 0.91 | 56.3 | – | – | – | 10.5 | 4780 | 420
